Like-named read-outs stand apart in the source and are kept apart here.

In test [1] the target is EGFR del19/C797S (Homo sapiens, UniProt P00533, C797S/DEL746-750). The test can be described thus: Biochemical EGFR kinase assay (Lance Ultra TR-FRET), double mutant del19/C797S. The procedure, abridged: (§1)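 Enzyme reactions lasted 1 hour at room temperature with test compounds between 0.003 and 10 μM, followed by 10 mM EDTA quench.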
(In TR-FRET formats the signal depends on donor and acceptor labels being close together.)

Test [2] has as its target EGFR L858R/T790M/C797S (Homo sapiens, UniProt P00533, C797S/L858R/T790M). The test can be described thus: Biochemical EGFR kinase assay (Lance Ultra TR-FRET), triple mutant L858R/T790M/C797S. An outline of the steps:
as §1

Test [3] addresses EGFR L858R/C797S (Homo sapiens, UniProt P00533, C797S/L858R). The test can be described thus: Biochemical EGFR kinase assay (Lance Ultra TR-FRET), double mutant L858R/C797S. The procedure, abridged:
as §1

The target of test [4] is EGFR del19/T790M/C797S (Homo sapiens, UniProt P00533, C797S/DEL746-750/T790M). The test can be described thus: Biochemical EGFR kinase assay (Lance Ultra TR-FRET), triple mutant del19/T790M/C797S. The procedure, abridged: as §1
Test [5] concerns the target EGFR wildtype (WT) (Homo sapiens, UniProt P00533). The test can be described thus: Biochemical EGFR kinase assay (Lance Ultra TR-FRET), wildtype. An outline of the steps: as §1
Where [6] appears, read: IC50 del19/C797S (nM) 100 μM ATP, 100 μM ATP.
Where [7] appears, read: Km ATP, read-out: IC50 del19/C797S (nM) Km ATP.
[8] abbreviates: IC50 L858R/T790M/C797S (nM) 100 μM ATP, 100 μM ATP.
The mark [9] stands for this setting: Km ATP, read-out: IC50 L858R/T790M/C797S (nM) Km ATP.
[10] abbreviates: IC50 L858R/C797S (nM) 100 μM ATP, 100 μM ATP.
The mark [11] stands for this setting: Km ATP, read-out: IC50 L858R/C797S (nM) Km ATP.
Where [12] appears, read: IC50 del19/T790M/C797S (nM) 100 μM ATP, 100 μM ATP.
Setting [13] is: Km ATP, read-out: IC50 del19/T790M/C797S (nM) Km ATP.
Setting [14] is: IC50 WT (nM) 100 μM ATP, 100 μM ATP.
Setting [15] is: Km ATP, read-out: IC50 WT (nM) Km ATP.

Chain of EGFR del19/C797S (P00533 with tags, fused parts or gaps DEL746-750/C797S): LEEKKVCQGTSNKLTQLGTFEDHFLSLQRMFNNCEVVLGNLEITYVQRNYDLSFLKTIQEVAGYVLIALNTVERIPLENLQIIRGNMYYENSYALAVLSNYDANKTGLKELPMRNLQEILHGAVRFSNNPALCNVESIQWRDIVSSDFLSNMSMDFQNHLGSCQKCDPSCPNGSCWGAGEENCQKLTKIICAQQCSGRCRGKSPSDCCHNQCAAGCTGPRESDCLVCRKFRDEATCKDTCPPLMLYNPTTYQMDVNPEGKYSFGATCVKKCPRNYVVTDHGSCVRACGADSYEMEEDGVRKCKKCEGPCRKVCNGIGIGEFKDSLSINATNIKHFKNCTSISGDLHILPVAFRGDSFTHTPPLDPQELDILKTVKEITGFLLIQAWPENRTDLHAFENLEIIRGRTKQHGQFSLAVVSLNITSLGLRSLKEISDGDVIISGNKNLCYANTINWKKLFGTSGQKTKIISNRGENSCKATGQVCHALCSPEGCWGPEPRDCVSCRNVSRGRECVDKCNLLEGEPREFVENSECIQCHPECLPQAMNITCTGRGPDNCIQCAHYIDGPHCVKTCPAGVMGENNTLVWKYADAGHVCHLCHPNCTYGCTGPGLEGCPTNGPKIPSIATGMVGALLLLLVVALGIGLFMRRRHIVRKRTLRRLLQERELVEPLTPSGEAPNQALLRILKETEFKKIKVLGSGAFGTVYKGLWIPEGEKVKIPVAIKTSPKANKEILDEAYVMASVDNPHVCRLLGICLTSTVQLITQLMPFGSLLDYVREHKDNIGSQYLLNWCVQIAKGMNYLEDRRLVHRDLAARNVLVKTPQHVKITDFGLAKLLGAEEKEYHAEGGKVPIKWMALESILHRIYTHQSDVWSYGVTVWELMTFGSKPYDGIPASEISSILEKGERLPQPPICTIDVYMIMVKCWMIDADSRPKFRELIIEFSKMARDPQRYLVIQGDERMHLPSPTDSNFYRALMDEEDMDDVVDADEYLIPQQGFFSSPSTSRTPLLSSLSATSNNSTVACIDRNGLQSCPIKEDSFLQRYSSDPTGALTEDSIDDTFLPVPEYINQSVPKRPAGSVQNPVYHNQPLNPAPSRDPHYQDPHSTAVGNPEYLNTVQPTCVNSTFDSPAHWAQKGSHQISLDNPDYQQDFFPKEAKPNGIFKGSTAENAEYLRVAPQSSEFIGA
Chain of EGFR L858R/C797S (P00533 25-1210 C797S/L858R): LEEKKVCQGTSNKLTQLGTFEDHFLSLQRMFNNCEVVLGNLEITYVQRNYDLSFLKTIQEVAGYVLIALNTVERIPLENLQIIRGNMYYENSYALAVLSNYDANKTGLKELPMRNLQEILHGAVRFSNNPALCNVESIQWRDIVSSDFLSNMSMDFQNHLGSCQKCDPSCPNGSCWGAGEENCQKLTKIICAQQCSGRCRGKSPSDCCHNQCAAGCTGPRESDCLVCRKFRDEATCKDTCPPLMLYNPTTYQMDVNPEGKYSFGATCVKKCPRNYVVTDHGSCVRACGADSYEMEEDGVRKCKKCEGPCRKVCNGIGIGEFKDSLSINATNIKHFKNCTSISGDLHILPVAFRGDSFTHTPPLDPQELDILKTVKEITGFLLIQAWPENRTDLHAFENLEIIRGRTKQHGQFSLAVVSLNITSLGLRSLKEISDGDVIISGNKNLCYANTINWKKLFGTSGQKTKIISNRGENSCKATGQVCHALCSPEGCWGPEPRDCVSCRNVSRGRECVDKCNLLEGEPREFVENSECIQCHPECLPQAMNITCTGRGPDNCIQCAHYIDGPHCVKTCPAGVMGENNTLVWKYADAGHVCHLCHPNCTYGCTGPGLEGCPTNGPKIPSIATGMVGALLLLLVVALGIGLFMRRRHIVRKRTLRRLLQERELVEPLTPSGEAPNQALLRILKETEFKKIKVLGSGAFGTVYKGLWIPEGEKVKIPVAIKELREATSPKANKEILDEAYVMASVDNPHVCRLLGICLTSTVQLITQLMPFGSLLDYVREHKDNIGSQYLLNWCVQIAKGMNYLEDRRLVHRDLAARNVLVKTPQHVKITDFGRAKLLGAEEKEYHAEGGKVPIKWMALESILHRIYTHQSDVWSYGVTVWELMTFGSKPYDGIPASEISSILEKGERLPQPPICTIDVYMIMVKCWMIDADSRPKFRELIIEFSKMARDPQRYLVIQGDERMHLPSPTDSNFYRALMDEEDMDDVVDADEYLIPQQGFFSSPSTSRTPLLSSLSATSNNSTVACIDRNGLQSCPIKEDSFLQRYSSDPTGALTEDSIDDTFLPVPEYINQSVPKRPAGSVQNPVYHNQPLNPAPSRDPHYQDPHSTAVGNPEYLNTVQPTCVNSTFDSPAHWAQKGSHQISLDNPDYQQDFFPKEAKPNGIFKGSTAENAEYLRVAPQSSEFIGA
Chain of EGFR wildtype (WT) (P00533 25-1210): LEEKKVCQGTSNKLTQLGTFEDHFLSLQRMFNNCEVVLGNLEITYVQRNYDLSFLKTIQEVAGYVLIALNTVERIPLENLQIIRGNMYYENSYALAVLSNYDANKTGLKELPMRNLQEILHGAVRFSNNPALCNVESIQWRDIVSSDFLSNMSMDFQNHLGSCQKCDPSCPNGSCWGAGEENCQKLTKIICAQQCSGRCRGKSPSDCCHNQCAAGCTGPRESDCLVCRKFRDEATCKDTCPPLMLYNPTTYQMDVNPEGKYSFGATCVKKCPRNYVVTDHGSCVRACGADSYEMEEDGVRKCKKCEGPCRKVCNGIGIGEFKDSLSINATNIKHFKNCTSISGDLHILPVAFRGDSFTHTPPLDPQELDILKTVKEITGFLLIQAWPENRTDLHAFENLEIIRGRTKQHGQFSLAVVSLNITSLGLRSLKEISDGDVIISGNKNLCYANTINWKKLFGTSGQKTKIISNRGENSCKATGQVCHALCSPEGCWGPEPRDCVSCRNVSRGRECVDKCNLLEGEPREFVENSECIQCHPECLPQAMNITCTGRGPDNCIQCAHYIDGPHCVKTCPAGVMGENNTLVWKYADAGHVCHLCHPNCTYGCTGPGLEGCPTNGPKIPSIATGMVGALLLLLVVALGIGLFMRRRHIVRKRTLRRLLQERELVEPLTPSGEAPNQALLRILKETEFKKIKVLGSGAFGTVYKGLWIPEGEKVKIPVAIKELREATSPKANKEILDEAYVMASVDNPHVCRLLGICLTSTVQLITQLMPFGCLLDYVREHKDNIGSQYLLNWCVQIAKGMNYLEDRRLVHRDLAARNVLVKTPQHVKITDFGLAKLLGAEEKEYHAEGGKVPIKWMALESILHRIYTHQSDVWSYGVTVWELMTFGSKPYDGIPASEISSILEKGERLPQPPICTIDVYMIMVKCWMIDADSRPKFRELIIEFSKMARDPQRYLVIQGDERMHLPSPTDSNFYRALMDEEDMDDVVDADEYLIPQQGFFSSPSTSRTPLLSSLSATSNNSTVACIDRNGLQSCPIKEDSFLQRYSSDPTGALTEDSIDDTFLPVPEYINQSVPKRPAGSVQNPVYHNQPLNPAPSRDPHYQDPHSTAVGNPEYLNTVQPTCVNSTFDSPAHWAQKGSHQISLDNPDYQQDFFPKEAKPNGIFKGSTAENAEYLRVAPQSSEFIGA
Chain of EGFR L858R/T790M/C797S (P00533 25-1210 T790M/C797S/L858R): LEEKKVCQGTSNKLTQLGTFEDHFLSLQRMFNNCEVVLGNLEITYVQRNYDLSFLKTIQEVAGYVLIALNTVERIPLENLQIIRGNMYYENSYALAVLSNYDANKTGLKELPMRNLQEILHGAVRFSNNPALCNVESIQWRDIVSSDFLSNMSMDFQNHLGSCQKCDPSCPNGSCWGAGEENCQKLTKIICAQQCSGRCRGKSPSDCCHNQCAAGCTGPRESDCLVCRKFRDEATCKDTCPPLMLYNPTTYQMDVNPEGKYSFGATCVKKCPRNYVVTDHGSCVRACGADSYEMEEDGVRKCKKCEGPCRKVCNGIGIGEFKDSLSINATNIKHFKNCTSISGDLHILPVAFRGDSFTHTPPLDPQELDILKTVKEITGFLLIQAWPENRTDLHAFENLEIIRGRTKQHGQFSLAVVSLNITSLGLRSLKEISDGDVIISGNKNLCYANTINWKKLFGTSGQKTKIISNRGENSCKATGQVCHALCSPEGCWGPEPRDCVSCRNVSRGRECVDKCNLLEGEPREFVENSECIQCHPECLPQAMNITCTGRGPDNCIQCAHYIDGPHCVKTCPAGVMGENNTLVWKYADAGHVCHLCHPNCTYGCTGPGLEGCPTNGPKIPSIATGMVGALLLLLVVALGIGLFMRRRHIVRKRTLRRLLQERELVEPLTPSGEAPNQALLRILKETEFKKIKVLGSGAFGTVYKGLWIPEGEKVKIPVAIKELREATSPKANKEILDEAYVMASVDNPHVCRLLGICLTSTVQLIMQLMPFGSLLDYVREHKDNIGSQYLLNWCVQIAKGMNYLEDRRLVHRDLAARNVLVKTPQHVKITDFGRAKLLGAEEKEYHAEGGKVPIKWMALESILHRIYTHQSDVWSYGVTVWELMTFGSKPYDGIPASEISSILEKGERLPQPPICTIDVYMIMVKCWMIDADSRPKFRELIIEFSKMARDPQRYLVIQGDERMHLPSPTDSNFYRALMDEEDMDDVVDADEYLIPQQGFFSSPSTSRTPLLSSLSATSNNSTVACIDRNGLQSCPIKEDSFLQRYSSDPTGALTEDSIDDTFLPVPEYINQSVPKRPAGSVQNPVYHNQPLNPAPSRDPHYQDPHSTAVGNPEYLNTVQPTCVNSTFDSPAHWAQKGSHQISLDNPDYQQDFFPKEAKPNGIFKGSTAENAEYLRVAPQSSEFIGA

As for `O=S(=O)(C1CC1)n1cc(-c2nccc(Nc3cc(N[C@H]4CC[C@@H](CN5CCC5)CC4)c(-c4ccn(CC(F)(F)F)n4)cn3)n2)cn1` [Example 272, N^4-((1s,4s)-4-(Azetidin-1-ylmethyl)cyclohexyl)-N^2-(2-(1-(cyclopropylsulfonyl)-1H-pyrazol-4-yl)pyrimidin-4-yl)-5-(1-(2,2,2-trifluoroethyl)-1H-pyrazol-3-yl)pyridine-2,4-diamine], the IC50 worked out at 0.5 nM in test [1] (setting [6]); 23.9 nM in test [1] (setting [7]); 0.2 nM in test [2] (setting [8]); 0.1 nM in test [2] (setting [9]); 1.1 nM in test [3] (setting [10]); 0.4 nM in test [3] (setting [11]). Moreover, the IC50 was 0.5 nM in test [4] (setting [12]), 0.3 nM in test [4] (setting [13]), 325 nM in test [5] (setting [14]) and 1.4 nM in test [5] (setting [15]).

As for `Cn1ccc(-c2cnc(Nc3ccnc(-c4cnn(S(=O)(=O)C5CC5)c4)n3)cc2NC2CCCC(NCCF)C2)n1` (stereo not shown) [Example 225, N^2-(2-(1-(Cyclopropylsulfonyl)-1H-pyrazol-4-yl)pyrimidin-4-yl)-N^4-(3-((2-fluoroethyl)amino)cyclohexyl)-5-(1-methyl-1H-pyrazol-3-yl)pyridine-2,4-diamine], the IC50 in test [1] (setting [6]) was 6.7 nM; in test [1] (setting [7]) it was 2.9 nM; in test [2] (setting [8]), 0.6 nM; in test [2] (setting [9]) it was 0.2 nM; in test [3] (setting [10]), 15.3 nM; in test [3] (setting [11]), 5 nM. Moreover, the IC50 in test [4] (setting [12]) was 0.2 nM; in test [4] (setting [13]) it was 0.3 nM; in test [5] (setting [14]), above 10000 nM; in test [5] (setting [15]), 27.4 nM.

For the compound `CNC(=O)[C@H]1CC[C@@H](Nc2cc(Nc3ccnc(-c4cnn(S(=O)(=O)C5CC5)c4)n3)ncc2-c2ccn(C(F)F)n2)CC1` [Example 24, (1s,4s)-4-((2-((2-(1-(Cyclopropylsulfonyl)-1H-pyrazol-4-yl)pyrimidin-4-yl)amino)-5-(1-(difluoromethyl)-1H-pyrazol-3-yl)pyridin-4-yl)amino)-N-methylcyclohexane-1-carboxamide], the IC50 is 0.8 nM in test [1] (setting [6]); 0.7 nM in test [1] (setting [7]); 0.3 nM in test [2] (setting [8]); 0.2 nM in test [2] (setting [9]); 14.3 nM in test [3] (setting [10]); 2 nM in test [3] (setting [11]). The IC50 is 0.5 nM in test [4] (setting [12]), 0.3 nM in test [4] (setting [13]), above 10000 nM in test [5] (setting [14]) and 6.9 nM in test [5] (setting [15]).

On to `CN(C)C[C@]1(O)CC[C@@H](Nc2cc(Nc3ccnc(-c4cnn(S(=O)(=O)C5CC5)c4)n3)ncc2-c2ccn(C)n2)CC1` [Example 230, (1s,4s)-4-((2-((2-(1-(Cyclopropylsulfonyl)-1H-pyrazol-4-yl)pyrimidin-4-yl)amino)-5-(1-methyl-1H-pyrazol-3-yl)pyridin-4-yl)amino)-1-((dimethylamino)methyl)cyclohexan-1-ol], for which the IC50 in test [1] (setting [6]) came to 6 nM; in test [1] (setting [7]), 4.8 nM; in test [2] (setting [8]), 0.5 nM; in test [2] (setting [9]) it was 0.2 nM; in test [3] (setting [10]), 33.8 nM; in test [3] (setting [11]), 3.3 nM. For the same compound, the IC50 was found to be 0.5 nM in test [4] (setting [12]), 0.2 nM in test [4] (setting [13]), 4670 nM in test [5] (setting [14]) and 9.4 nM in test [5] (setting [15]).

Take `Cn1ccc(-c2cnc(Nc3ccnc(-c4cnn(S(=O)(=O)C5CC5)c4)n3)cc2N[C@H]2CC[C@]3(CCC(=O)N3)CC2)n1` [Example 44, (5s,8s)-8-((2-((2-(1-(Cyclopropylsulfonyl)-1H-pyrazol-4-yl)pyrimidin-4-yl)amino)-5-(1-methyl-1H-pyrazol-3-yl)pyridin-4-yl)amino)-1-azaspiro[4.5]decan-2-one]: the IC50 in test [1] (setting [6]) stood at 0.2 nM; in test [1] (setting [7]) it was 0.2 nM; in test [2] (setting [8]), 0.2 nM; in test [2] (setting [9]) it was 0.1 nM; in test [3] (setting [10]), 0.8 nM; in test [3] (setting [11]) it was 0.2 nM. Moreover, the IC50 in test [4] (setting [12]) was 0.2 nM; in test [4] (setting [13]), 0.2 nM; in test [5] (setting [14]), above 10000 nM; in test [5] (setting [15]), 1 nM.

Regarding `Cc1nn(CC(F)(F)F)cc1-c1nccc(Nc2cc(N[C@H]3CC[C@@](C)(O)CC3)c(-c3ccn(CC(F)F)n3)cn2)n1` [Example 335, (1s,4s)-4-((5-(1-(2,2-Difluoroethyl)-1H-pyrazol-3-yl)-2-((2-(3-methyl-1-(2,2,2-trifluoroethyl)-1H-pyrazol-4-yl)pyrimidin-4-yl)amino)pyridin-4-yl)amino)-1-methylcyclohexan-1-ol], the IC50 is 7.9 nM in test [1] (Km ATP, read-out: IC50 del19/C797S, Km ATP); 0.7 nM in test [2] (Km ATP, read-out: IC50 L858R/T790M/C797S, Km ATP); 4.6 nM in test [3] (Km ATP, read-out: IC50 L858R/C797S, Km ATP); 1.6 nM in test [4] (Km ATP, read-out: IC50 del19/T790M/C797S, Km ATP); 98.8 nM in test [5] (Km ATP, read-out: IC50 WT, Km ATP).
